Data from ChEMBL document CHEMBL3108727, “Lupane triterpenoids from the stems of Euonymus carnosus” (J Nat Prod, 2014).

Experiments:
[1] = Antiinflammatory activity in mouse BV2 cells assessed as inhibition of LPS-induced nitric oxide production after 24 hrs by Griess method; format: functional, cell-based; details: BV-2, 24 h
[2] = system: A2780; test: Cytotoxicity against human A2780 cells after 96 hrs by MTT assay; format: functional, cell-based; details: A2780, 96 h
[3] = system: A549; test: Cytotoxicity against human A549 cells after 96 hrs by MTT assay; format: functional, cell-based; details: A549, 96 h
[4] = Cytotoxicity against human BGC823 cells after 96 hrs by MTT assay; format: functional, cell-based; details: BGC-823, 96 h
[5] = Cytotoxicity against human Bel7402 cells after 96 hrs by MTT assay; format: functional, cell-based; details: Bel-7402, 96 h
[6] = Cytotoxicity against human HCT8 cells after 96 hrs by MTT assay; format: functional, cell-based; details: HCT-8, 96 h
[7] = Cytotoxicity against mouse BV2 cells assessed as cell viability by MTT assay relative to LPS-treated control; format: cell-based, BV-2; design: concentration or dose not given beside the values; details: read-out: Activity

SMILES | IC50 [1] | IC50 [2] | IC50 [3] | IC50 [4] | IC50 [5] | IC50 [6] | viability [7]
C=C(CO)[C@@H]1CC[C@]2(C)CC[C@]3(C)[C@H](CC[C@@H]4[C@@]5(C)CC[C@@H](O)C(C)(C)[C@@H]5CC[C@]43C)[C@@H]12 | > 10 µM | > 10 µM | > 10 µM | > 10 µM | > 10 µM | > 10 µM | 
CC(=O)[C@@H]1CC[C@]2(C)CC[C@]3(C)[C@H](CC[C@@H]4[C@@]5(C)CC[C@@H](O)C(C)(C)[C@@H]5CC[C@]43C)[C@@H]12 | > 10 µM | > 10 µM | > 10 µM | > 10 µM | > 10 µM | > 10 µM | 
CC(=O)[C@@H]1CC[C@]2(C)CC[C@]3(C)[C@H](CC[C@@H]4[C@@]5(C)CC[C@H](O)C(C)(C)[C@@H]5CC[C@]43C)[C@@H]12 | 6.09 µM | > 10 µM | > 10 µM | > 10 µM | > 10 µM | > 10 µM | 93.5%
C[C@H](C(=O)O)[C@@H]1CC[C@]2(C)CC[C@]3(C)[C@H](CC[C@@H]4[C@@]5(C)CC[C@@H](O)C(C)(C)[C@@H]5CC[C@]43C)[C@@H]12 | 7.39 µM | > 10 µM | > 10 µM | > 10 µM | > 10 µM | > 10 µM | 87.3%
C[C@@H](O)[C@@H]1CC[C@]2(C)CC[C@]3(C)[C@H](CC[C@@H]4[C@@]5(C)CC[C@@H](O)C(C)(C)[C@@H]5CC[C@]43C)[C@@H]12 | 3.48 µM | > 10 µM | > 10 µM | > 10 µM | > 10 µM | > 10 µM | 94.2%
C=C(C=O)[C@@H]1CC[C@]2(C)CC[C@]3(C)[C@H](CC[C@@H]4[C@@]5(C)CC[C@@H](O)C(C)(C)[C@@H]5CC[C@]43C)[C@@H]12 | > 10 µM | > 10 µM | > 10 µM | > 10 µM | > 10 µM | > 10 µM | 
C=C(C)[C@@H]1CC[C@]2(C)CC[C@]3(C)[C@H](CC[C@@H]4[C@@]5(C)CC[C@@H](O)C(C)(C)[C@@H]5CC[C@]43C)[C@@H]12 | > 10 µM | > 10 µM | > 10 µM | > 10 µM | > 10 µM | > 10 µM | 
C=C(CO)[C@@H]1CC[C@]2(C)CC[C@]3(C)[C@H](CC[C@@H]4[C@@]5(C)CCC(=O)C(C)(C)[C@@H]5CC[C@]43C)[C@@H]12 | > 10 µM | > 10 µM | > 10 µM | > 10 µM | > 10 µM | > 10 µM | 
C=C(CO)[C@@H]1CC[C@]2(C)CC[C@]3(C)[C@H](CC[C@@H]4[C@@]5(C)CC[C@H](O)C(C)(C)[C@@H]5CC[C@]43C)[C@@H]12 | > 10 µM | > 10 µM | > 10 µM | > 10 µM | > 10 µM | > 10 µM | 
C=C(C)[C@@H]1CC[C@]2(CO)CC[C@]3(C)[C@H](CC[C@@H]4[C@@]5(C)CC[C@@H](O)C(C)(C)[C@@H]5CC[C@]43C)[C@@H]12 [3-EPI-BETULIN] | 2.54 µM | > 10 µM | > 10 µM | > 10 µM | > 10 µM | > 10 µM | 89.3%
C=C(C)[C@@H]1CC[C@]2(CO)CC[C@]3(C)[C@H](CC[C@@H]4[C@@]5(C)CC[C@H](O)C(C)(C)[C@@H]5CC[C@]43C)[C@@H]12 [BETULIN] | > 10 µM | > 10 µM | > 10 µM | > 10 µM | > 10 µM | > 10 µM | 
C=C(C)[C@@H]1CC[C@]2(CO)CC[C@]3(C)[C@H](CC[C@@H]4[C@@]5(C)CCC(=O)C(C)(C)[C@@H]5CC[C@]43C)[C@@H]12 [BETULONE] | > 10 µM | > 10 µM | > 10 µM | > 10 µM | > 10 µM | > 10 µM | 
C=C(C)[C@@H]1CC[C@]2(C)CC[C@]3(C)[C@H](CC[C@@H]4[C@@]5(C)CC[C@H](O)C(C)(C)[C@@H]5CC[C@]43C)[C@@H]12 [LUPEOL] | > 10 µM | > 10 µM | > 10 µM | > 10 µM | > 10 µM | > 10 µM | 
CC(=O)O[C@H]1C(=O)[C@@]2(C)[C@H]([C@H](OC(=O)c3ccccc3)[C@]3(O)C[C@H](OC(=O)[C@H](O)[C@@H](NC(=O)c4ccccc4)c4ccccc4)C(C)=C1C3(C)C)[C@]1(OC(C)=O)CO[C@@H]1C[C@@H]2O [PACLITAXEL] |  | 0.59 µM | 0.032 µM | 0.026 µM | 0.011 µM |  | 

Continued, in another order:

IC50 [1] | SMILES | IC50 [2] | IC50 [3] | IC50 [4] | IC50 [5] | IC50 [6] | viability [7]
7.48 µM | CC(=O)O[C@@H]1CC[C@]2(C)[C@H]3CC[C@@H]4[C@H]5[C@H]([C@H](C)C(=O)O)CC[C@]5(C)CC[C@@]4(C)[C@]3(C)CC[C@H]2C1(C)C | > 10 µM | > 10 µM | > 10 µM | > 10 µM | > 10 µM | 98.5%
> 10 µM | C[C@H](C(=O)O)[C@@H]1CC[C@]2(C)CC[C@]3(C)[C@H](CC[C@@H]4[C@@]5(C)CCC(=O)C(C)(C)[C@@H]5CC[C@]43C)[C@@H]12 | > 10 µM | > 10 µM | > 10 µM | > 10 µM | > 10 µM | 
7.8 µM | C[C@@H](C(=O)O)[C@@H]1CC[C@]2(C)CC[C@]3(C)[C@H](CC[C@@H]4[C@@]5(C)CC[C@@H](O)C(C)(C)[C@@H]5CC[C@]43C)[C@@H]12 | > 10 µM | > 10 µM | > 10 µM | > 10 µM | > 10 µM | 96.8%
> 10 µM | C[C@@H](CO)[C@@H]1CC[C@]2(C)CC[C@]3(C)[C@H](CC[C@@H]4[C@@]5(C)CCC(=O)C(C)(C)[C@@H]5C[C@H](O)[C@]43C)[C@@H]12 | > 10 µM | > 10 µM | > 10 µM | > 10 µM | > 10 µM | 
> 10 µM | C[C@@H](CO)[C@@H]1CC[C@]2(C)C[C@H](O)[C@]3(C)[C@H](CC[C@@H]4[C@@]5(C)CCC(=O)C(C)(C)[C@@H]5CC[C@]43C)[C@@H]12 | > 10 µM | > 10 µM | > 10 µM | > 10 µM | > 10 µM | 
> 10 µM | C=C(CO)[C@@H]1CC[C@]2(C)CC[C@]3(C)[C@H](CC[C@@H]4[C@@]5(C)CCC(=O)C(C)(C)[C@@H]5C[C@H](O)[C@]43C)[C@@H]12 | > 10 µM | > 10 µM | > 10 µM | > 10 µM | > 10 µM | 
> 10 µM | C=C(CO)[C@@H]1CC[C@]2(C)C[C@H](O)[C@]3(C)[C@H](CC[C@@H]4[C@@]5(C)CCC(=O)C(C)(C)[C@@H]5CC[C@]43C)[C@@H]12 | > 10 µM | > 10 µM | > 10 µM | > 10 µM | > 10 µM | 
> 10 µM | C=C(CO)[C@@H]1CC[C@]2(CO)CC[C@]3(C)[C@H](CC[C@@H]4[C@@]5(C)CC[C@@H](OC(C)=O)C(C)(C)[C@@H]5CC[C@]43C)[C@@H]12 | > 10 µM | 3.35 µM | 4.09 µM | 2.77 µM | 3.21 µM | 
> 10 µM | CC(=O)C1=C2[C@H]3CC[C@@H]4[C@@]5(C)CC[C@@H](O)C(C)(C)[C@@H]5CC[C@@]4(C)[C@]3(C)CC[C@@]2(C)CC1=O | > 10 µM | > 10 µM | > 10 µM | > 10 µM | > 10 µM | 
> 10 µM | CC(=O)O[C@@H]1CC[C@]2(C)[C@H]3CC[C@@H]4[C@H]5[C@H](C(C)=O)CC[C@]5(CO)CC[C@@]4(C)[C@]3(C)CC[C@H]2C1(C)C (relative stereo) | > 10 µM | > 10 µM | > 10 µM | > 10 µM | > 10 µM | 
> 10 µM | CC(=O)[C@@H]1CC[C@]2(CO)CC[C@]3(C)[C@H](CC[C@@H]4[C@@]5(C)CC[C@@H](O)C(C)(C)[C@@H]5CC[C@]43C)[C@@H]12 (relative stereo) | > 10 µM | > 10 µM | > 10 µM | > 10 µM | > 10 µM | 
> 10 µM | CC(=O)OC[C@]12CC[C@@H](C(C)=O)[C@@H]1[C@H]1CC[C@@H]3[C@@]4(C)CC[C@@H](O)C(C)(C)[C@@H]4CC[C@@]3(C)[C@]1(C)CC2 (relative stereo) | > 10 µM | > 10 µM | > 10 µM | > 10 µM | > 10 µM | 
0.53 µM | COc1cc(/C=C/C(=O)CC(=O)/C=C/c2ccc(O)c(OC)c2)ccc1O [CURCUMIN] |  |  |  |  |  | 93.3%
